Values of other authors as cited in US20100104646A1, “NANOPARTICLE COMPOSITION FOR PREVENTION OF HAIR LOSS AND PROMOTION OF HAIR GROWTH” (priority 2006, published 2010).

Test system: hair loss
Details: clinical studies

For `CC(C)(C)NC(=O)[C@H]1CC[C@H]2[C@@H]3CC[C@H]4NC(=O)C=C[C@]4(C)[C@H]3CC[C@]12C` [Propecia], which “participants taking the drug in whom hair loss was prevented” value is on record?
The value was 68%.

And the “participants who enjoyed hair regrowth” value (participants taking the drug)?
Its value is 66%.
